The subject of the test is T1, horseradish peroxidase (HRP).
T1 construct: gene PRXC1A
The test can be described thus: dye decolorization at […] nm, Lineweaver-Burk plot. Type of test: biochemical, Armoracia rusticana. Particulars: free HRP; H2O2 co-substrate (14 μL of 30% w/v per 3 mL, fixed); pH 6.6; 30°C; commercial dye; read-out: apparent Km.

The record followed here is article PMC3736071, “Probing horseradish peroxidase catalyzed degradation of azo dye from tannery wastewater” (SpringerPlus, 2013).

Consider `O=S(=O)(O)c1cccc(N=Nc2ccc(N=Nc3ccc(Nc4ccccc4)c4c(S(=O)(=O)O)cccc34)c3ccccc23)c1` [C.I. Acid Blue 113], for which the Michaelis constant (Km) came to 68 µM.
